“And” between values parts separate entries of the source, which are not always exact repeats. Identical values can stand only once. Where a SMILES comes first, the peptide text is derived from it. [ ]: non-standard residue; d: D form. Hyp = O=C(O)[C@@H]1C[C@@H](O)CN1
Tested on: human PBMCs
Test: PBMC cell counts (total, live, viability; trypan blue, Countess) with and without LPS and test articles (Example 9)
Assay type: cell-based
Description: Treatment Human PBMCs were pretreated with YY-101, YDE-011 and YDE-043 or reference compound; Xiidra® at various concentration (ranging from 1 nM to 100 uM) for 2 h before stimulation. An equal volume of 0.5% DMSO was used as a vehicle control. Then, the cells were treated with LPS at 5 ug/ml. The supernatants from treated cells were harvested at 24 h and placed in a 96 well for Luminex cytokine & chemokine profiling using a Luminex 200 multiplex assay (Luminex; R&D system, USA).
The main study arm with triplicate wells per group in a 24-well plate: • 1. Blank • 2. PBMC: 0.5% DMSO • 3. PBMC+LPS (5 ug/ml) • 4. PBMC+YY-101 100 uM • 5. PBMC+YY-101 10 uM • 6. PBMC+YY-101 1 uM • 7. PBMC+YY-101 0.1 uM • 8. PBMC+YY-101 0.01 uM • 9. PBMC+LPS (5 ug/ml)+Xiidra®100 uM • 10. PBMC+LPS (5 ug/ml)+Xiidra® 10 uM • 11. PBMC+LPS (5 ug/ml)+Xiidra® 1 uM • 12. PBMC+LPS (5 ug/ml)+Xiidra®0.1 uM • 13. PBMC+LPS (5 ug/ml)+Xiidra®0.01 uM • 14. PBMC+LPS (5 ug/ml)+Xiidra®0.001 uM • 15. PBMC+LPS (5 ug/ml)+YY-101 100 uM • 16. PBMC+LPS (5 ug/ml)+YY-101 10 uM • 17. PBMC+LPS (5 ug/ml)+YY-101 1 uM • 18. PBMC+LPS (5 ug/ml)+YY-101 0.1 uM • 19. PBMC+LPS (5 ug/ml)+YY-101 0.01 uM • 20. PBMC+LPS (5 ug/ml)+YY-101 0.001 uM • 21. PBMC+LPS (5 ug/ml)+YDE-011 100 uM • 22. PBMC+LPS (5 ug/ml)+YDE-011 10 uM • 23. PBMC+LPS (5 ug/ml)+YDE-011 1 uM • 24. PBMC+LPS (5 ug/ml)+YDE-011 0.1 uM • 25. PBMC+LPS (5 ug/ml)+YDE-011 0.01 uM • 26. PBMC+LPS (5 ug/ml)+YDE-011 0.001 uM • 27. PBMC+LPS (5 ug/ml)+YDE-043 100 uM • 28. PBMC+LPS (5 ug/ml)+YDE-043 10 uM • 29. PBMC+LPS (5 ug/ml)+YDE-043 1 uM • 30. PBMC+LPS (5 ug/ml)+YDE-043 0.1 uM • 31. PBMC+LPS (5 ug/ml)+YDE-043 0.01 uM • 32. PBMC+LPS (5 ug/ml)+YDE-043 0.001 uM
The number of PBMCs was measured after 24 hr of treatment. The culture both and trypan blue were diluted 1:1 and 10 ul was added to Countess cell counting chamber (Thermo fisher, USA). The number of PBMCs was measured using a Countess automated cell counter (Thermo fisher, USA).

[1] = PBMC + LPS(5 ug/ml) + compound 0.001 uM, 24 hr
[2] = PBMC + LPS(5 ug/ml) + compound 0.01 uM, 24 hr
[3] = PBMC + LPS(5 ug/ml) + compound 0.1 uM, 24 hr
[4] = PBMC + LPS(5 ug/ml) + compound 1 uM, 24 hr
[5] = PBMC + LPS(5 ug/ml) + compound 10 uM, 24 hr
[6] = PBMC + LPS(5 ug/ml) + compound 100 uM, 24 hr
[7] = PBMC + LPS(5 ug/ml) + test article 0.001 uM, Mean
[8] = PBMC + LPS(5 ug/ml) + test article 0.001 uM, single replicates
[9] = PBMC + LPS(5 ug/ml) + test article 0.01 uM, Mean
[10] = PBMC + LPS(5 ug/ml) + test article 0.01 uM, single replicates
[11] = PBMC + LPS(5 ug/ml) + test article 0.1 uM, Mean
[12] = PBMC + LPS(5 ug/ml) + test article 0.1 uM, single replicates
[13] = PBMC + LPS(5 ug/ml) + test article 1 uM, Mean
[14] = PBMC + LPS(5 ug/ml) + test article 1 uM, single replicates
[15] = PBMC + LPS(5 ug/ml) + test article 10 uM, Mean
[16] = PBMC + LPS(5 ug/ml) + test article 10 uM, single replicates

CC(C)C[C@H](NC(=O)CNC(=O)[C@H](CC(C)C)NC(=O)[C@H](CCC(N)=O)NC(=O)CNC(=O)[C@@H]1C[C@@H](O)CN1)C(=O)N[C@@H](C)C(=O)NCC(=O)N1CCC[C@H]1C(=O)N[C@@H](CCCCN)C(=O)O [YDE-011] (H-[Hyp]GQLGLAGPK-OH)
Live cell [1]: 5.4 ± 0.4 10^5/ml
Total cell [1]: 6.3 ± 0.2 10^5/ml
Live cell [2]: 5.9 ± 0.4 10^5/ml
Total cell [2]: 7.3 ± 0.4 10^5/ml
Live cell [3]: 5.8 ± 0.5 10^5/ml
Total cell [3]: 7.1 ± 0.7 10^5/ml
Live cell [4]: 5.0 ± 0.2 10^5/ml
Total cell [4]: 6.4 ± 0.3 10^5/ml
Live cell [5]: 5.3 ± 0.3 10^5/ml
Total cell [5]: 6.0 ± 0.4 10^5/ml
Live cell [6]: 6.1 ± 0.0 10^5/ml
Total cell [6]: 8.2 ± 0.4 10^5/ml
Live cell [7]: 5.4 10^5/ml
Live cell (10^5/ml) [7]: 5.4 10^5/ml
Live cell, Mean [7]: 5.4 10^5/ml
Live cell (PBMC + LPS(5 ug/ml) + test article 0.001 uM, individual replicates): 4.5 10^5/ml and 5.8 10^5/ml (2×)
Live cell (PBMC + LPS(5 ug/ml) + test article 0.001 uM, individual replicates (1st, 2nd, 3rd)): 4.5 10^5/ml and 5.8 10^5/ml (2×)
Live cell [8]: 4.5 10^5/ml and 5.8 10^5/ml (2×)
Live cell (10^5/ml) [8]: 4.5 10^5/ml and 5.8 10^5/ml (2×)
Live cell (PBMC + LPS(5 ug/ml) + test article 0.001 uM, single replicates (1st, 2nd, 3rd)): 4.5 10^5/ml and 5.8 10^5/ml (2×)
Live cell [9]: 5.9 10^5/ml
Live cell (10^5/ml) [9]: 5.9 10^5/ml
Live cell, Mean [9]: 5.9 10^5/ml
Live cell (PBMC + LPS(5 ug/ml) + test article 0.01 uM, individual replicates): 6.2 10^5/ml and 5.1 10^5/ml and 6.3 10^5/ml
Live cell (PBMC + LPS(5 ug/ml) + test article 0.01 uM, individual replicates (1st, 2nd, 3rd)): 6.2 10^5/ml and 5.1 10^5/ml and 6.3 10^5/ml
Live cell [10]: 6.3 10^5/ml and 6.2 10^5/ml and 5.1 10^5/ml
Live cell (10^5/ml) [10]: 6.3 10^5/ml and 6.2 10^5/ml and 5.1 10^5/ml
Live cell (PBMC + LPS(5 ug/ml) + test article 0.01 uM, single replicates (1st, 2nd, 3rd)): 6.2 10^5/ml and 5.1 10^5/ml and 6.3 10^5/ml
Live cell [11]: 5.8 10^5/ml
Live cell (10^5/ml) [11]: 5.8 10^5/ml
Live cell, Mean [11]: 5.8 10^5/ml
Live cell (PBMC + LPS(5 ug/ml) + test article 0.1 uM, individual replicates): 6.6 10^5/ml and 5.0 10^5/ml and 5.7 10^5/ml
Live cell (PBMC + LPS(5 ug/ml) + test article 0.1 uM, individual replicates (1st, 2nd, 3rd)): 6.6 10^5/ml and 5.0 10^5/ml and 5.7 10^5/ml
Live cell [12]: 6.6 10^5/ml and 5.0 10^5/ml and 5.7 10^5/ml
Live cell (10^5/ml) [12]: 6.6 10^5/ml and 5.0 10^5/ml and 5.7 10^5/ml
Live cell (PBMC + LPS(5 ug/ml) + test article 0.1 uM, single replicates (1st, 2nd, 3rd)): 6.6 10^5/ml and 5.0 10^5/ml and 5.7 10^5/ml
Live cell [13]: 5.0 10^5/ml
Live cell (10^5/ml) [13]: 5.0 10^5/ml
Live cell, Mean [13]: 5.0 10^5/ml
Live cell (PBMC + LPS(5 ug/ml) + test article 1 uM, individual replicates): 5.5 10^5/ml and 4.8 10^5/ml (2×)
Live cell (PBMC + LPS(5 ug/ml) + test article 1 uM, individual replicates (1st, 2nd, 3rd)): 5.5 10^5/ml and 4.8 10^5/ml (2×)
Live cell [14]: 5.5 10^5/ml and 4.8 10^5/ml (2×)
Live cell (10^5/ml) [14]: 5.5 10^5/ml and 4.8 10^5/ml (2×)
Live cell (PBMC + LPS(5 ug/ml) + test article 1 uM, single replicates (1st, 2nd, 3rd)): 5.5 10^5/ml and 4.8 10^5/ml (2×)
Live cell [15]: 5.3 10^5/ml
Live cell (10^5/ml) [15]: 5.3 10^5/ml
Live cell, Mean [15]: 5.3 10^5/ml
Live cell (PBMC + LPS(5 ug/ml) + test article 10 uM, individual replicates): 5.4 10^5/ml and 5.8 10^5/ml and 4.7 10^5/ml
Live cell (PBMC + LPS(5 ug/ml) + test article 10 uM, individual replicates (1st, 2nd, 3rd)): 5.4 10^5/ml and 5.8 10^5/ml and 4.7 10^5/ml
Live cell [16]: 5.4 10^5/ml and 5.8 10^5/ml and 4.7 10^5/ml
Live cell (10^5/ml) [16]: 5.4 10^5/ml and 5.8 10^5/ml and 4.7 10^5/ml

From US20230146455A1, “TREATMENT OF INFLAMMATORY DISEASES WITH PEPTIDES AND PHARMACEUTICAL COMPOSITIONS” (Yuyu Pharma, Inc., priority 2020, published 2023)
